Measured values from patent US10294202B2, “Pyrrolidinones as herbicides” (FMC Corporation, priority 2013, dated 2019).

What was measured:
crabgrass, large = experiment: Test A pre-/postemergence herbicide test; type: in vivo, Digitaria sanguinalis; conditions: for Crabgrass, Large plant response rating: visual rating on 0 to 100 scale (0 no effect, 100 complete control)
How it was run: (§1)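 Visual injury ratings, 0 = no effect, 100 = complete control, taken ~10 days after treatment against untreated greenhouse controls. Preemergence: directed soil spray onto seeded loam/sand pots. Postemergence: spray onto plants at one- to two-leaf stage, 2–10 cm tall.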

velvetleaf = experiment: Test A pre-/postemergence herbicide test; type: in vivo, Abutilon theophrasti; conditions: for Velvetleaf plant response rating: visual rating on 0 to 100 scale (0 no effect, 100 complete control)
How it was run: as §1

giant foxtail = experiment: Test A pre-/postemergence herbicide test; type: in vivo, Setaria faberii; conditions: for Foxtail, Giant plant response rating: visual rating on 0 to 100 scale (0 no effect, 100 complete control)
How it was run: as §1

ducksalad = experiment: Test B flooded paddy test; type: in vivo, Heteranthera limosa; conditions: Flood, scale of 0 to 100 where 0 is no effect and 100 is complete control
How it was run: (§2)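 Visual ratings from 0, meaning no effect, up to 100, meaning complete control, were made by comparison with untreated controls 13 to 15 days after treatment. Test compounds went straight into floodwater standing 3 cm over the soil of pots holding 2-leaf seedlings.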

morningglory = experiment: Test A pre-/postemergence herbicide test; type: in vivo, Ipomoea spp.; conditions: for Morningglory plant response rating: visual rating on 0 to 100 scale (0 no effect, 100 complete control)
How it was run: as §1

corn = experiment: Test A pre-/postemergence herbicide test; type: in vivo, Zea mays; conditions: for Corn plant response rating: visual rating on 0 to 100 scale (0 no effect, 100 complete control)
How it was run: as §1

sedge, umbrella = experiment: Test B flooded paddy test; type: in vivo, Cyperus difformis; conditions: Flood, scale of 0 to 100 where 0 is no effect and 100 is complete control
How it was run: as §2

pigweed = experiment: Test A pre-/postemergence herbicide test; type: in vivo, Amaranthus retroflexus; conditions: for Pigweed plant response rating: visual rating on 0 to 100 scale (0 no effect, 100 complete control)
How it was run: as §1

wheat = experiment: Test A pre-/postemergence herbicide test; type: in vivo, Triticum aestivum; conditions: for Wheat plant response rating: visual rating on 0 to 100 scale (0 no effect, 100 complete control)
How it was run: as §1

rice = experiment: Test B flooded paddy test; type: in vivo, Oryza sativa; conditions: Flood, scale of 0 to 100 where 0 is no effect and 100 is complete control
How it was run: as §2

barnyardgrass [1] = experiment: Test A pre-/postemergence herbicide test; type: in vivo, Echinochloa crus-galli; conditions: for Barnyardgrass plant response rating: visual rating on 0 to 100 scale (0 no effect, 100 complete control)
How it was run: as §1

barnyardgrass [2] = experiment: Test B flooded paddy test; type: in vivo, Echinochloa crus-galli; conditions: Flood, scale of 0 to 100 where 0 is no effect and 100 is complete control
How it was run: as §2

[3] = Postemergence, 125 g ai/ha, 0 to 100 scale, 0 no effect, 100 complete control
[4] = Postemergence, 500 g ai/ha, 0 to 100 scale (0 no effect, 100 complete control)
[5] = preemergence, 500 g ai/ha, 0 to 100 scale
[6] = preemergence, 500 g ai/ha, 0 to 100 scale (0 no effect, 100 complete control)
[7] = Postemergence, 125 g ai/ha, 0 to 100 scale, 0 is no effect, 100 is complete control
[8] = Preemergence, 125 g ai/ha, 0 to 100 scale where 0 is no effect and 100 is complete control
[9] = preemergence, 500 g ai/ha, 0 to 100 scale, 0 is no effect and 100 is complete control

O=C1NCC(c2ccc(F)c(F)c2)C1C(=O)Nc1cccc2c1OC(F)(F)O2 (stereo not drawn) [Compound 57]
40: Barnyardgrass plant response rating (barnyardgrass [1]; Preemergence, 125 g ai/ha)
0: Plant response rating, Velvetleaf (velvetleaf; [3]) | Plant response rating, Velvetleaf (velvetleaf; [4]) | Velvetleaf plant response rating (velvetleaf; Preemergence, 125 g ai/ha) | Plant response rating, Velvetleaf (velvetleaf; [5]) | Plant response rating, Ducksalad (ducksalad; 250 g ai/ha) | Plant response rating, Morningglory (morningglory; [3]) | Plant response rating, Morningglory (morningglory; [4]) | Morningglory plant response rating (morningglory; Preemergence, 125 g ai/ha) | Plant response rating, Morningglory (morningglory; [5]) | Plant response rating, Corn (corn; [3]) | Plant response rating, Corn (corn; [4]) | Corn plant response rating (corn; Preemergence, 125 g ai/ha) | Plant response rating, Corn (corn; [5]) | Plant response rating, Sedge, Umbrella (sedge, umbrella; 250 g ai/ha) | Plant response rating, Pigweed (pigweed; [3]) | Plant response rating, Pigweed (pigweed; [4]) | Pigweed plant response rating (pigweed; Preemergence, 125 g ai/ha) | Plant response rating, Pigweed (pigweed; [5]) | Plant response rating, Wheat (wheat; [3]) | Plant response rating, Wheat (wheat; [4]) | Wheat plant response rating (wheat; Preemergence, 125 g ai/ha) | Plant response rating, Wheat (wheat; [5]) | Plant response rating, Rice (rice; 250 g ai/ha) | Plant response rating, Barnyardgrass (barnyardgrass [2]; 250 g ai/ha)
80: Crabgrass, Large plant response rating (crabgrass, large; Preemergence, 125 g ai/ha) | Plant response rating, Foxtail, Giant (giant foxtail; [5]) | Plant response rating, Barnyardgrass (barnyardgrass [1]; [4]) | Plant response rating, Barnyardgrass (barnyardgrass [1]; [6])
50: Plant response rating, Crabgrass, Large (crabgrass, large; [3]) | Plant response rating, Foxtail, Giant (giant foxtail; [3])
60: Plant response rating, Foxtail, Giant (giant foxtail; [4]) | Foxtail, Giant plant response rating (giant foxtail; Preemergence, 125 g ai/ha)
90: Plant response rating, Crabgrass, Large (crabgrass, large; [5])
70: Plant response rating, Crabgrass, Large (crabgrass, large; [4]) | Plant response rating, Barnyardgrass (barnyardgrass [1]; [3])

COc1cccc(NC(=O)C2C(=O)NCC2c2ccc(F)c(F)c2)n1 (stereo not drawn) [Compound 58]
40: Plant response rating, Crabgrass, Large (crabgrass, large; [3])
0: Plant response rating, Velvetleaf (velvetleaf; [3]) | Plant response rating, Velvetleaf (velvetleaf; [4]) | Velvetleaf plant response rating (velvetleaf; Preemergence, 125 g ai/ha) | Plant response rating, Velvetleaf (velvetleaf; [5]) | Plant response rating, Ducksalad (ducksalad; 250 g ai/ha) | Plant response rating, Morningglory (morningglory; [3]) | Plant response rating, Morningglory (morningglory; [4]) | Morningglory plant response rating (morningglory; Preemergence, 125 g ai/ha) | Plant response rating, Morningglory (morningglory; [5]) | Plant response rating, Corn (corn; [3]) | Plant response rating, Corn (corn; [4]) | Corn plant response rating (corn; Preemergence, 125 g ai/ha) | Plant response rating, Corn (corn; [5]) | Plant response rating, Sedge, Umbrella (sedge, umbrella; 250 g ai/ha) | Plant response rating, Pigweed (pigweed; [3]) | Plant response rating, Pigweed (pigweed; [4]) | Pigweed plant response rating (pigweed; Preemergence, 125 g ai/ha) | Plant response rating, Pigweed (pigweed; [5]) | Plant response rating, Wheat (wheat; [3]) | Plant response rating, Wheat (wheat; [4]) | Wheat plant response rating (wheat; Preemergence, 125 g ai/ha) | Plant response rating, Wheat (wheat; [5]) | Plant response rating, Rice (rice; 250 g ai/ha) | Plant response rating, Barnyardgrass (barnyardgrass [1]; [3]) | Plant response rating, Barnyardgrass (barnyardgrass [1]; [4]) | Barnyardgrass plant response rating (barnyardgrass [1]; Preemergence, 125 g ai/ha) | Plant response rating, Barnyardgrass (barnyardgrass [2]; 250 g ai/ha)
70: Crabgrass, Large plant response rating (crabgrass, large; Preemergence, 125 g ai/ha) | Plant response rating, Foxtail, Giant (giant foxtail; [4])
90: Plant response rating, Crabgrass, Large (crabgrass, large; [5])
80: Plant response rating, Crabgrass, Large (crabgrass, large; [4]) | Plant response rating, Foxtail, Giant (giant foxtail; [5])
20: Plant response rating, Foxtail, Giant (giant foxtail; [3]) | Foxtail, Giant plant response rating (giant foxtail; Preemergence, 125 g ai/ha) | Plant response rating, Barnyardgrass (barnyardgrass [1]; [6])

O=C1NCC(c2ccc(OC(F)(F)F)cc2)C1C(=O)Nc1cccc(F)c1F (racemic) [Compound 257]
70: Plant response rating, Ducksalad (ducksalad; 250 g ai/ha)
90: Plant response rating, Crabgrass, Large (crabgrass, large; [7]) | Plant response rating, Crabgrass, Large (crabgrass, large; [4]) | Plant response rating, Crabgrass, Large (crabgrass, large; [8]) | Plant response rating, Crabgrass, Large (crabgrass, large; [9]) | Plant response rating, Foxtail, Giant (giant foxtail; [4]) | Plant response rating, Foxtail, Giant (giant foxtail; [9])
0: Plant response rating, Velvetleaf (velvetleaf; [7]) | Plant response rating, Velvetleaf (velvetleaf; [4]) | Plant response rating, Velvetleaf (velvetleaf; [8]) | Plant response rating, Velvetleaf (velvetleaf; [9]) | Plant response rating, Morningglory (morningglory; [7]) | Plant response rating, Morningglory (morningglory; [4]) | Plant response rating, Morningglory (morningglory; [8]) | Plant response rating, Morningglory (morningglory; [9]) | Plant response rating, Corn (corn; [7]) | Plant response rating, Corn (corn; [8]) | Plant response rating, Corn (corn; [9]) | Plant response rating, Sedge, Umbrella (sedge, umbrella; 250 g ai/ha) | Plant response rating, Pigweed (pigweed; [7]) | Plant response rating, Pigweed (pigweed; [4]) | Plant response rating, Pigweed (pigweed; [8]) | Plant response rating, Pigweed (pigweed; [9]) | Plant response rating, Wheat (wheat; [8]) | Plant response rating, Wheat (wheat; [9]) | Plant response rating, Barnyardgrass (barnyardgrass [2]; 250 g ai/ha)
50: Plant response rating, Barnyardgrass (barnyardgrass [1]; [7])
80: Plant response rating, Foxtail, Giant (giant foxtail; [7]) | Plant response rating, Foxtail, Giant (giant foxtail; [8]) | Plant response rating, Barnyardgrass (barnyardgrass [1]; [4]) | Plant response rating, Barnyardgrass (barnyardgrass [1]; [9])
20: Plant response rating, Corn (corn; [4]) | Plant response rating, Wheat (wheat; [7])
15: Plant response rating, Rice (rice; 250 g ai/ha)
30: Plant response rating, Wheat (wheat; [4])
40: Plant response rating, Barnyardgrass (barnyardgrass [1]; [8])

CC(C)(C)OC(=O)Nc1cccc(C2CNC(=O)C2C(=O)Nc2cccc(F)c2F)c1 (stereo not drawn) [Compound 70]
85: Plant response rating, Ducksalad (ducksalad; 250 g ai/ha)
60: Plant response rating, Barnyardgrass (barnyardgrass [1]; [4])
0: Plant response rating, Velvetleaf (velvetleaf; [3]) | Velvetleaf plant response rating (velvetleaf; Preemergence, 125 g ai/ha) | Plant response rating, Velvetleaf (velvetleaf; [5]) | Plant response rating, Morningglory (morningglory; [3]) | Plant response rating, Morningglory (morningglory; [4]) | Morningglory plant response rating (morningglory; Preemergence, 125 g ai/ha) | Plant response rating, Morningglory (morningglory; [5]) | Plant response rating, Corn (corn; [3]) | Plant response rating, Corn (corn; [4]) | Corn plant response rating (corn; Preemergence, 125 g ai/ha) | Plant response rating, Corn (corn; [5]) | Plant response rating, Pigweed (pigweed; [3]) | Pigweed plant response rating (pigweed; Preemergence, 125 g ai/ha) | Plant response rating, Pigweed (pigweed; [5]) | Plant response rating, Wheat (wheat; [3]) | Wheat plant response rating (wheat; Preemergence, 125 g ai/ha)
70: Plant response rating, Crabgrass, Large (crabgrass, large; [4]) | Foxtail, Giant plant response rating (giant foxtail; Preemergence, 125 g ai/ha) | Plant response rating, Sedge, Umbrella (sedge, umbrella; 250 g ai/ha)
80: Crabgrass, Large plant response rating (crabgrass, large; Preemergence, 125 g ai/ha) | Plant response rating, Foxtail, Giant (giant foxtail; [4])
40: Plant response rating, Wheat (wheat; [4]) | Plant response rating, Barnyardgrass (barnyardgrass [2]; 250 g ai/ha)
20: Plant response rating, Crabgrass, Large (crabgrass, large; [3]) | Plant response rating, Velvetleaf (velvetleaf; [4]) | Plant response rating, Foxtail, Giant (giant foxtail; [3]) | Plant response rating, Pigweed (pigweed; [4]) | Plant response rating, Wheat (wheat; [5]) | Plant response rating, Barnyardgrass (barnyardgrass [1]; [3]) | Barnyardgrass plant response rating (barnyardgrass [1]; Preemergence, 125 g ai/ha)
90: Plant response rating, Crabgrass, Large (crabgrass, large; [5]) | Plant response rating, Foxtail, Giant (giant foxtail; [5]) | Plant response rating, Barnyardgrass (barnyardgrass [1]; [6])
35: Plant response rating, Rice (rice; 250 g ai/ha)

O=C1NCC(c2ccc(C(F)(F)F)c(Cl)c2)C1C(=O)Nc1ccccc1C(F)(F)F (racemic) [Compound 251]
0: Plant response rating, Crabgrass, Large (crabgrass, large; [7]) | Plant response rating, Velvetleaf (velvetleaf; [7]) | Plant response rating, Velvetleaf (velvetleaf; [4]) | Plant response rating, Velvetleaf (velvetleaf; [8]) | Plant response rating, Velvetleaf (velvetleaf; [9]) | Plant response rating, Foxtail, Giant (giant foxtail; [7]) | Plant response rating, Morningglory (morningglory; [7]) | Plant response rating, Morningglory (morningglory; [4]) | Plant response rating, Morningglory (morningglory; [8]) | Plant response rating, Morningglory (morningglory; [9]) | Plant response rating, Corn (corn; [7]) | Plant response rating, Corn (corn; [4]) | Plant response rating, Corn (corn; [8]) | Plant response rating, Corn (corn; [9]) | Plant response rating, Sedge, Umbrella (sedge, umbrella; 1000 g ai/ha) | Plant response rating, Pigweed (pigweed; [7]) | Plant response rating, Pigweed (pigweed; [8]) | Plant response rating, Wheat (wheat; [7]) | Plant response rating, Wheat (wheat; [4]) | Plant response rating, Wheat (wheat; [8]) | Plant response rating, Wheat (wheat; [9]) | Plant response rating, Rice (rice; 1000 g ai/ha) | Plant response rating, Barnyardgrass (barnyardgrass [1]; [7])
80: Plant response rating, Crabgrass, Large (crabgrass, large; [8]) | Plant response rating, Foxtail, Giant (giant foxtail; [9]) | Plant response rating, Barnyardgrass (barnyardgrass [1]; [9])
30: Plant response rating, Crabgrass, Large (crabgrass, large; [4]) | Plant response rating, Pigweed (pigweed; [9]) | Plant response rating, Barnyardgrass (barnyardgrass [1]; [4])
45: Plant response rating, Barnyardgrass (barnyardgrass [2]; 1000 g ai/ha)
20: Plant response rating, Foxtail, Giant (giant foxtail; [4]) | Plant response rating, Pigweed (pigweed; [4]) | Plant response rating, Barnyardgrass (barnyardgrass [1]; [8])
40: Plant response rating, Foxtail, Giant (giant foxtail; [8])
90: Plant response rating, Crabgrass, Large (crabgrass, large; [9]) | Plant response rating, Ducksalad (ducksalad; 1000 g ai/ha)
